Experimental data as given in ChEMBL document CHEMBL3286256 (J Med Chem, 2014).

What was measured:
[1] = biological target: T1, Retinal rod rhodopsin-sensitive cGMP 3',5'-cyclic phosphodiesterase subunit delta (Homo sapiens, UniProt O43924); assay: Binding affinity to His6-tagged PDE-delta (unknown origin) measured every 3 mins by fluorescence polarization assay
[2] = biological target: T1, Retinal rod rhodopsin-sensitive cGMP 3',5'-cyclic phosphodiesterase subunit delta
Description: Binding affinity to PDE-delta (unknown origin) assessed as shift in melting temperature

T1 sequence (O43924 whole entry): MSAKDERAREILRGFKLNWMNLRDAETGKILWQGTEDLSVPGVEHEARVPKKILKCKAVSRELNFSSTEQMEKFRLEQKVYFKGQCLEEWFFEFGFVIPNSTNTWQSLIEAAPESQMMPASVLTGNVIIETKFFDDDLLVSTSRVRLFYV

Kd [1] [nM]	ΔTm [2] [°C]	SMILES
> 2000	7.2	CC(C)(C)OC(=O)N1CCC(C(COc2ccc(-c3nc4ccccc4n3Cc3ccccc3)cc2)n2c(-c3ccccc3)nc3ccccc32)CC1 (stereo not given)
> 1000		C=CC(=O)N1CCC(c2nc3ccccc3n2Cc2ccccc2)CC1
	20.5	c1ccc(Cn2c(-c3ccc(OCC(C4CCNCC4)n4c(-c5ccccc5)nc5ccccc54)cc3)nc3ccccc32)cc1 (stereo not given)
1250		CC(C)c1nc(N(C)S(C)(=O)=O)nc(-c2ccc(F)cc2)c1/C=C/[C@@H](O)C[C@@H](O)CC(=O)O [ROSUVASTATIN]
